What all share (assay): inhibition of tumour cell growth, NCI panel, 48 h
Assay [1] relates to A498 renal.
Assay [2] deals with A549 NSCLC.
Assay [3] concerns CAKI-1 renal.
In assay [4] the test system is DU-145 prostate.
Assay [5] concerns HCT-116 colon.
For assay [6], the system named is HOP-62 NSCLC.
The test system of assay [7] is HT29 colon.
For assay [8], the system named is LOX IMVI melanoma.
For assay [9], the system named is MDA-MB-435.
Assay [10] deals with MDA-N.
For assay [11], the system named is NCI-H226 lung.
Assay [12] deals with PC-3 prostate.
Assay [13] deals with SF-295 CNS.
The subject of assay [14] is SN12C renal.
Assay [15] deals with SR leukemia.
The test system of assay [16] is SW-620 colon.
For assay [17], the system named is TK-10 renal.
The subject of assay [18] is U251 CNS.
Assay [19] deals with UACC-62 melanoma.
For assay [20], the system named is UO-31 renal.

Results on seven molecules are retold here after PubChem BioAssay (NCI).

The structures appear in SMILES notation.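 These data come from cells grown in 96-well plates and exposed to compound for 48 hours at five concentrations. TGI is the concentration that stops growth completely.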

Turning to `CCOC(=O)c1c(N2CCOCC2)[nH]c(=O)c(C(c2c(O)c(C(=O)OCC)c(N3CCOCC3)[nH]c2=O)C(C)C)c1O`, the TGI in assay [1], in [2], in assay [3], in [4], in assay [5] and in assay [6] was more than 100 µM each time. Besides, the TGI in [7], in assay [8], in assay [9], in assay [10], in assay [11] and in assay [12] was more than 100 µM throughout. Also, the TGI in [13], in [14], in assay [15], in assay [16], in [17] and in assay [18] was more than 100 µM throughout. The TGI in assay [19] and in assay [20] was more than 100 µM each time.
Turning to `C/C(=N/NC(=S)N1CCCCCC1)c1ccccc1O`, the TGI in assay [1] was more than 74 µM; in assay [2], more than 100 µM; in [3], more than 96.2 µM; in [4] it was more than 69.4 µM; in assay [5], more than 100 µM; in assay [6], 56.7 µM. Further, the TGI is 39.7 µM in [7]; more than 78.7 µM in assay [8]; more than 100 µM in assay [9]; more than 100 µM in [10]; more than 59.5 µM in [11]; more than 100 µM in [12]. Besides, the TGI is more than 100 µM in [13]; 40.9 µM in [14]; 4.57 µM in assay [15]; more than 100 µM in assay [16]; more than 100 µM in assay [17]; more than 100 µM in [18]. Besides, the results for the TGI in [19] and in assay [20] were 17.7 µM and more than 88.3 µM, respectively.
Take `CCOC(=O)c1c(Nc2ccccc2)sc2cccnc12`: the TGI in assay [1] was 26.2 µM; in [2] it was 81.1 µM; in assay [3], 98.4 µM; in assay [4], more than 69.7 µM; in [5], 46.7 µM; in [6], more than 81 µM. For the same molecule, the TGI in assay [7] stood at 49.6 µM; in assay [8] it was 44.6 µM; in assay [9], 54.6 µM; in assay [10], 58.3 µM; in assay [11] it was 57.1 µM; in [12], 65 µM. Further, the TGI in assay [13] is 49.9 µM; in assay [14] it was 45 µM; in assay [15], 59.6 µM; in assay [16] it was more than 100 µM; in [17], 86.1 µM; in assay [18] it was more than 57.9 µM. In addition, the results for the TGI in assay [19] and in assay [20] were 45.3 µM and 43.4 µM, respectively.
Turning to `O=C(COC(c1ccc(F)cc1)c1ccc(F)cc1)N1CCN(CCCc2ccccc2)CC1`, the TGI in assay [1] amounted to 12.6 µM; in [2] it was 15.2 µM; in [3], 4.15 µM; in assay [4] it was 14.5 µM; in assay [5], 10.5 µM; in [6], 19.4 µM. Moreover, the TGI worked out at 11.2 µM in assay [7]; 16.2 µM in [8]; 13 µM in [9]; 13.4 µM in assay [10]; 8.73 µM in assay [11]; 11.9 µM in assay [12]. Besides, the TGI in assay [13] is 13 µM; in assay [14], 11.3 µM; in assay [15], 18.6 µM; in [16], more than 100 µM; in [17], 17.8 µM; in assay [18], 14.8 µM. In addition, the TGI in assay [19] amounted to 16.5 µM; in assay [20] it was 3.56 µM.
For `COc1ccc2cc(-c3ccc(OC)c(OC)c3)c(=O)oc2c1`, the TGI in [1], in [2], in assay [3], in assay [4], in assay [5] and in assay [6] was more than 100 µM throughout. Besides, the TGI in assay [7], in assay [8], in assay [9], in assay [10], in assay [11] and in assay [12] was more than 100 µM in each case. Further, the TGI in [13], in assay [14], in [15], in [16], in assay [17] and in assay [18] was more than 100 µM in each case. Further, the TGI in [19] and in [20] was more than 100 µM each time.
Turning to `O=C1OC(C2Cc3cc4c(cc3C2=O)CCC4)c2ccccc21` (stereo not given), the TGI is 61.6 µM in assay [1]; more than 100 µM in assay [2]; more than 100 µM in assay [3]; more than 100 µM in assay [4]; more than 100 µM in assay [5]; more than 100 µM in [6]. Besides, the TGI in assay [7] is more than 100 µM; in assay [8], more than 100 µM; in assay [9], more than 100 µM; in [10], more than 100 µM; in assay [11] it was 58.6 µM; in assay [12] it was more than 100 µM. Also, the TGI in [13], in assay [14], in [15], in assay [16], in [17] and in [18] was more than 100 µM in each case. Further, the TGI in assay [19] and in assay [20] was more than 100 µM throughout.
Consider `NC(=O)ON=C1CCN(Cc2ccccc2)CC1`, for which the TGI in [1], in assay [2], in assay [3], in assay [4], in assay [5] and in assay [6] was more than 100 µM each time. In addition, the TGI in [7], in assay [8], in assay [9], in assay [10], in [11] and in assay [12] was more than 100 µM throughout. Moreover, the TGI in assay [13], in assay [14], in assay [15], in [16], in assay [17] and in assay [18] was more than 100 µM in each case. In addition, the TGI in assay [19] and in assay [20] was more than 100 µM throughout.
